Target: ROCK2 (human) (UniProt O75116)
Assay: Enzyme Assay

Sequence of ROCK2 (human) (O75116 whole entry, looked up): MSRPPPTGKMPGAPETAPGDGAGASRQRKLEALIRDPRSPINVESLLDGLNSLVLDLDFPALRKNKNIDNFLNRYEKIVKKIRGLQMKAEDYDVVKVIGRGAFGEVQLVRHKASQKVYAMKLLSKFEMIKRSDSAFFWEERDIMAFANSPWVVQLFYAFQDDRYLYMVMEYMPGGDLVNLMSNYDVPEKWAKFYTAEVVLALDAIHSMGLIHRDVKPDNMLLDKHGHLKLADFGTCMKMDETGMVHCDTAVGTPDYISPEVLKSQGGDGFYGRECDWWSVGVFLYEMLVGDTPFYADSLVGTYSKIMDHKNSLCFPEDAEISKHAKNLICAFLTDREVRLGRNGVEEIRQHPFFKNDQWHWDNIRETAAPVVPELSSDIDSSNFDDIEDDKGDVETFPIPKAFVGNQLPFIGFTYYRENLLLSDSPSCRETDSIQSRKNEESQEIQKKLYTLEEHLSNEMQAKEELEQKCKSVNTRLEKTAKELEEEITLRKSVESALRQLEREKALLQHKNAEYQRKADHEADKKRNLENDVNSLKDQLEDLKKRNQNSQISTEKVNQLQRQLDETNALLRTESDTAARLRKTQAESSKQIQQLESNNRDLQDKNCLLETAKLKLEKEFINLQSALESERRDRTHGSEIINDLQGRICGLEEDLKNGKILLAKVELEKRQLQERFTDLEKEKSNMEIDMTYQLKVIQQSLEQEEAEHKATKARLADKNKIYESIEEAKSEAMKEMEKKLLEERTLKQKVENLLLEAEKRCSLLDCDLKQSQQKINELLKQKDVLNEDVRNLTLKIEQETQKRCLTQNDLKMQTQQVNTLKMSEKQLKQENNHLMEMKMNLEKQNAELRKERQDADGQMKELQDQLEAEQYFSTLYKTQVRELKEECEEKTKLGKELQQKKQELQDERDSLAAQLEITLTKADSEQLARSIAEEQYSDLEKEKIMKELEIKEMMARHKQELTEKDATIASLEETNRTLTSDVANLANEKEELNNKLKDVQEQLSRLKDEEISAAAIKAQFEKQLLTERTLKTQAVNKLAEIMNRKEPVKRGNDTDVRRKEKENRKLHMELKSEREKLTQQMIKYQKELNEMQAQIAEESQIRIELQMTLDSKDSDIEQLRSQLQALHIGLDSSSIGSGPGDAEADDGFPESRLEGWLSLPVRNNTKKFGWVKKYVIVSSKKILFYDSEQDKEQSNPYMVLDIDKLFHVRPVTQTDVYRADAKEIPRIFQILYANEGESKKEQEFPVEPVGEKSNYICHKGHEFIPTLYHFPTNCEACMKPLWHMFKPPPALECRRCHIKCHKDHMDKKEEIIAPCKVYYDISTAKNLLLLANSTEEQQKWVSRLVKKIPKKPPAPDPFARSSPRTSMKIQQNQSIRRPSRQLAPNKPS

| Structure (SMILES) | IC50 [nM] |
| --- | --- |
| NCc1ccc(C(=O)Nc2ccncc2F)cc1-c1cccc(NC(=O)c2ccc(SC3CCOC3=O)cc2)c1 (stereo unspecified) | < 100 |
| CC1CC(Sc2ccc(NC(=O)c3cccc(-c4cc(C(=O)Nc5ccncc5F)ccc4CN)c3)cc2)C(=O)O1 (stereo unspecified) | < 100 |
| NCc1ccc(C(=O)Nc2ccncc2F)cc1-c1cccc(C(=O)Nc2cccc(SC3CCOC3=O)c2)c1 (stereo unspecified) | < 100 |
| NCc1ccc(C(=O)Nc2ccncc2F)cc1-c1cccc(C(=O)Nc2ncc(NC3CCOC3=O)s2)c1 (stereo unspecified) | < 100 |
| NCc1ccc(C(=O)Nc2ccncc2F)cc1-c1cccc(C(=O)Nc2ccc(SC3CCOC3=O)cc2)c1 (stereo unspecified) | < 100 |
| NCc1ccc(C(=O)Nc2ccncc2F)cc1-c1cccc(C(=O)Nc2ccc(SC3CCOC3=O)cc2F)c1 (stereo unspecified) | < 100 |
| CN(c1ccc(NC(=O)c2cccc(-c3cc(C(=O)Nc4ccncc4F)ccc3CN)c2)cc1)C1CCOC1=O (stereo unspecified) | < 100 |
| NCc1ccc(C(=O)Nc2ccncc2F)cc1-c1cccc(C(=O)Nc2ccc(OC3CCOC3=O)cc2)c1 (stereo unspecified) | < 100 |

Next, values leading:

| IC50 [nM] | Structure (SMILES) |
| --- | --- |
| < 100 | NCc1ccc(C(=O)Nc2ccncc2F)cc1-c1cccc(C(=O)Nc2ccc(NC3CCOC3=O)cc2)c1 (stereo unspecified) |
| < 100 | NCc1ccc(C(=O)Nc2ccncc2F)cc1-c1cccc(C(=O)Nc2ccc(SC3COC(=O)C3)cc2)c1 (stereo unspecified) |
| < 100 | NCc1ccc(C(=O)Nc2ccncc2F)cc1-c1cccc(C(=O)Nc2ccc(SCC3CCOC3=O)cc2)c1 (stereo unspecified) |
| < 100 | NCc1ccc(C(=O)Nc2ccncc2F)cc1-c1cccc(NC(=O)c2ccc(NC3CCOC3=O)cc2)c1 (stereo unspecified) |
| < 100 | Cc1cc(NC2CCOC2=O)ccc1NC(=O)c1cccc(-c2cc(C(=O)Nc3ccncc3F)ccc2CN)c1 (stereo unspecified) |
| < 100 | NCc1ccc(C(=O)Nc2ccncc2)cc1-c1cccc(NC(=O)c2ccc(SC3CCOC3=O)cc2)c1 (stereo unspecified) |
| < 100 | NCc1ccc(C(=O)Nc2ccncc2F)cc1-c1cccc(C(=O)Nc2ccc(CNC3CCOC3=O)cc2)c1 (stereo unspecified) |
| < 100 | CC1(C)COC(=O)C1Sc1ccc(NC(=O)c2cccc(-c3cc(C(=O)Nc4ccncc4F)ccc3CN)c2)cc1 (stereo unspecified) |

— the Kinase Knowledgebase extract (Sharma et al. 2016)
